According to US7951806B2, “Plasminogen activator inhibitor-1 inhibitor” (Renascience Co., Ltd., priority 2007, dated 2011):
Marks after values point to notes of the source that are not given here.

Columns and labels:
PAI-1 [1] = target: T1, PAI-1 (Homo sapiens, UniProt P05121); assay: PAI-1 Inhibitory Activity Assay (Reference Test Example 1 (1)); format: biochemical; details: 35 μM and 50 μM; FIG. 14
T1 construct: purchased Molecular Innovations Inc., USA (PAI-1); American Diagnostica, Inc., USA (t-PA)
Description: The compounds a and b (test compounds) were evaluated for inhibitory action on human PAI-1 (product of Molecular Innovations Inc., USA, hereinafter referred to the same). More specifically, human PAI-1 was added to a 0.1% Tween 80-containing 100 mM Tris-HCl (pH 8) solution each containing the above compound respectively in a given concentration (20, 35, 50 and 100 μM), and incubated at 37° C. for 15 minutes. Subsequently, added thereto was human tissue plasminogen activator (t-PA) (product of American Diagnostica, Inc., USA, hereinafter referred to the same), adjusted to […], and further incubated at 37° C. for 15 minutes. Then, 1.25 mM of S-2288 synthesized substrate (product of Chromogenix, Italy, hereinafter referred to as the same), a chromogenic substrate, was added thereto. The final mixed solution contained 100 mM Tris-HCl (pH 8), 30 mM NaCl, 1% DMSO, 0.1% Tween […], 9.8 nM t-PA, 1 mM S-2288 and the test compound a or b (20, 35, 50 or 100 μM).
Free radical p-nitroanilide removed from the chromogenic substrate (S-2288) by t-PA action was measured using a spectrophotometer at an absorbance of 405 nm, every 5 minutes, for 30 minutes. […]

PAI-1 [2] = target: T1, PAI-1; assay: Fibrinolytic Action Assay (fibrin plate, PAI-1 + t-PA + test compound); format: biochemical; details: mixture of PAI-1, t-PA and test compound, 18 hours at room temperature
Description: The compounds a and b were evaluated for fibrinolytic action in accordance with the method disclosed in the document (Matsuo, O. et al., Haemostasis 16, 43-50 (1986)).
More specifically, an aqueous solution (25 mM barbital sodium, 50 mM NaCl, and 25 mM CaCl2) containing a concentration of 1.5 mg/ml of fibrinogen (product of Organon Teknica) was added on a 9 cm-plate to thrombin (10NIH U/ml: product of Mochida Pharmaceutical Co., Ltd.) dissolved in a 0.2 ml physiological saline, and the mixture was allowed to stand for 2 hours at room temperature. Using this mixture, fibrinolysis assay was conducted.
Namely, a mixture of PAI-1, t-PA and a test compound were dropped onto the above-mentioned plate, and incubated for 18 hours at room temperature. Fibrinolysis due to the plasminogen activation was assayed in terms of the lysed area on the plate.

plasma PAI-1 = target: T2, plasma PAI-1 (Mus musculus, UniProt P22777); assay: Plasma PAI-1 activity in mice with bleomycin-induced pulmonary fibrosis; format: in vivo
T2 construct: from tissue; host or cells: mouse plasma (C57BL/6, male)
T2 sequence (P22777 23-402): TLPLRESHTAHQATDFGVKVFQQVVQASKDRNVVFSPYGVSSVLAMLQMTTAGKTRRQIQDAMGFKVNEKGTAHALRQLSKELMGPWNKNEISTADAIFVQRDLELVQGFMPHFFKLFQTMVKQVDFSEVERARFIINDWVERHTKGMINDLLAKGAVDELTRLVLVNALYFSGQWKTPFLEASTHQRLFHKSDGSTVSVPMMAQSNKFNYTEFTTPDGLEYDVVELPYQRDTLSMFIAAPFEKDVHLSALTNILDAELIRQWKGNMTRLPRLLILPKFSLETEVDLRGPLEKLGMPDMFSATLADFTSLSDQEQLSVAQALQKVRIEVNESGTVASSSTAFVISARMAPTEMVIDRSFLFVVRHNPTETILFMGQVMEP
Description: (§1) A C57BL/6 mouse (male, body weight 19 to 21 g) was intraperitoneally anesthetized with pentobarbital, and an incision was made on the cervical organ. Ten mice were used as controls. The control mice (n=10) were endotracheally administered with bleomycin (product of Nippon Kayaku Co., Ltd.) (1.5 U/kg), lysed in physiological saline, twice a day for 14 days. On the other hand, the test mice were subjected to forcible oral administration with the compound b (200 mg/kg), suspended in a 0.5% carboxymethyl cellulose aqueous solution, twice a day for 14 days, in addition to the above endotracheal administration. Then, the lung tissues taken from these control mice and the test mice were analyzed, and further assayed for hydroxyproline levels. The hydroxyproline levels in the lung tissues were assayed in terms of the level in the hydrolysate of the lung tissues as described in the method of Kivirikko et al (Anal. Biochem. 19, 249-255 (1967)). Pulmonary fibrosis levels (severity) were scored from 0 to 8, based on the method of Ashcort et al (J. Clin. Pathol. 41, 467-470, (1988)). Further, the control mice and test mice were assayed for plasma PAI-1 activity (ng/ml). The results of lung tissue analysis were shown in FIG. 15 (a represents fibrosis score and b is a set of histological stain images).

[3] = system: bleomycin-induced pulmonary fibrosis; assay: Effects on bleomycin-induced pulmonary fibrosis (mouse model); format: in vivo
Description: as §1

[4] = C57BL/6 mice, bleomycin, 200 mg/kg p.o. twice/day for 14 days in 0.5% CMC, n=10, mean±SE
[5] = versus elevation by bleomycin, 200 mg/kg p.o. twice a day

T1 sequence (P05121 24-402): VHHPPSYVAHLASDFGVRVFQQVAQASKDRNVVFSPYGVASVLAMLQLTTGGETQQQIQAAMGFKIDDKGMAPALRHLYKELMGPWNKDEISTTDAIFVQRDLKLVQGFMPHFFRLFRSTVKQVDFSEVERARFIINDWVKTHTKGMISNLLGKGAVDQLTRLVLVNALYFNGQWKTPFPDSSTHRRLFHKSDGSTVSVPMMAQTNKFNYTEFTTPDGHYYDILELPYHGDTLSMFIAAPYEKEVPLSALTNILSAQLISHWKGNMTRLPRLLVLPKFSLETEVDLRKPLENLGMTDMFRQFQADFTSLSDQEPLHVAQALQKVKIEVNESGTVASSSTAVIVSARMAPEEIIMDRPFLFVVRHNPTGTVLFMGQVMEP

Row | Structure (SMILES) | PAI-1 activity inhibitory action compared with tiplaxtinin (PAI-1 [1]) | fibrinolysis (lysed area on the plate) (PAI-1 [2]) | Plasma PAI-1 Activity (plasma PAI-1; [4]) | plasma PAI-1 activity (in words) (plasma PAI-1; [5]) | Hydroxyproline Level in Lung Tissue [3, 4] | fibrosis score ([3]; scored from 0 to 8 (Ashcroft), bleomycin mice, 200 mg/kg p.o. twice a day for 14 days, FIG. 15) | hydroxyproline level in the lung tissues (in words) [3, 5]
1 | CCC(CC(=O)Nc1scc(-c2ccccc2)c1C(=O)O)C(=O)Nc1scc(-c2ccccc2)c1C(=O)O (stereo not drawn) [compound a, 2-[3-(3′-Carboxy-4′-phenylthiophen-2′-ylcarbamoyl)-pentanoylamino]-4-phenylthiophen-3-carboxylic acid] | higher PAI-1 activity inhibitory action at concentrations of 35 μM and 50 μM than tiplaxtinin | inhibit the fibrinolysis suppression caused by PAI-1 |  |  |  |  | 
2 | CCC(CC(=O)Nc1scc(-c2cccs2)c1C(=O)O)C(=O)Nc1scc(-c2cccs2)c1C(=O)O (stereo not drawn) [compound b, 2-[3-(3′-carboxy-4′-thienylthiophen-2′-ylcarbamoyl)-pentanoylamino]-4-thienylthiophen-3-carboxylic acid] | higher PAI-1 activity inhibitory action at concentrations of 35 μM and 50 μM than tiplaxtinin | inhibit the fibrinolysis suppression caused by PAI-1 | 1.2 ± 0.1^b ng/ml | significantly decreases | 204.2 ± 9.5^b μg/lung | 2.9±0.42 | significantly decreases
